± gives the standard deviation of the averaged measurements.
How the values were obtained:
Assay in all cases: level (log10 ratio to DMSO vehicle control); higher = higher biomarker level / cell amount than vehicle control
[1] = compound: O=S(=O)(O)C(F)(F)C(F)(F)C(F)(F)C(F)(F)C(F)(F)C(F)(F)C(F)(F)C(F)(F)C(F)(F)C(F)(F)F [Sodium perfluorodecanesulfonate]; settings: in DMSO
Experimental: (§1)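 BioMAP Diversity Plus panel of 12 human primary cell co-culture systems (3C, 4H, LPS, SAg, BT, BF4T, BE3C, CASM3C, HDF3CGF, KF3CT, MyoF, Mphg). Compounds were added 1 h before stimulation and left for 24 h (MyoF 48 h; BT 72 h for soluble read-outs or 6 d for IgG). Biomarkers were read by ELISA, cytotoxicity by SRB, PBMC viability and proliferation by Alamar Blue. Each well value was divided by the mean of 8 DMSO control wells on the same plate and log10 transformed; duplicate blinded samples were tested at 4 concentrations.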

[2] = compound: FC(F)(F)C(F)(F)C(F)(F)CC1CO1 [1H,1H-Heptafluorobutyl epoxide]; settings: in DMSO
Experimental: as §1

[3] = compound: O=C(O)C=CC(F)(C(F)(F)F)C(F)(F)F [3-(Perfluoroisopropyl)-2-propenoic acid]; settings: in DMSO
Experimental: as §1

[4] = compound: FC(F)(F)C(F)(F)C(F)(F)CI [Heptafluorobutyl iodide]; settings: in DMSO
Experimental: as §1

[5] = compound: O=C(O)C(F)(F)C(F)(F)C(F)(F)C(F)(F)C(F)(F)C(F)(F)C(F)(F)C(F)(F)C(F)(F)C(F)F [11-H-Perfluoroundecanoic acid]; settings: in DMSO
Experimental: as §1

[6] = compound: O=S(=O)(O)CCC(F)(F)C(F)(F)C(F)(F)C(F)(F)C(F)(F)C(F)(F)F [6:2 Fluorotelomer sulfonic acid]; settings: in DMSO
Experimental: as §1

[7] = compound: C=C(C)C(=O)OCCC(F)(F)C(F)(F)C(F)(F)C(F)(F)C(F)(F)C(F)(F)F [6:2 Fluorotelomer methacrylate]; settings: in DMSO
Experimental: as §1

[8] = compound: OCC(F)(F)C(F)(F)C(F)(F)CO [Hexafluoroamylene glycol]; settings: in DMSO
Experimental: as §1

[9] = compound: O=S(=O)(Cl)C(F)(F)C(F)(F)C(F)(F)C(F)(F)C(F)(F)C(F)(F)C(F)(F)C(F)(F)F [Perfluoro-1-octanesulfonyl chloride]; settings: in DMSO
Experimental: as §1

[10] = compound: NC(=O)C(F)(F)C(F)(F)C(F)(F)C(F)(F)C(N)=O [Octafluoroadipamide]; settings: in DMSO
Experimental: as §1

[11] = compound: C=CC(=O)OCC(F)(F)C(F)(F)C(F)(F)COC(=O)C=C [1H,1H,5H,5H-Perfluoro-1,5-pentanediol diacrylate]; settings: 6700 nM; in DMSO
Experimental: as §1

[12] = compound: NS(=O)(=O)C(F)(F)C(F)(F)C(F)(F)C(F)(F)C(F)(F)C(F)(F)F [Perfluorohexanesulfonamide]; settings: in DMSO
Experimental: as §1

[13] = compound: FC(F)(F)C(F)(F)C(F)(F)C(F)(F)C(F)(F)C(F)(F)CC1CO1 [3-(Perfluorohexyl)-1,2-epoxypropane]; settings: in DMSO
Experimental: as §1

[14] = compound: NC(=O)C(F)(F)C(F)(F)C(F)(F)C(F)(F)F [Nonafluoropentanamide]; settings: in DMSO
Experimental: as §1

[15] = compound: O=S(=O)(F)C(F)(F)C(F)(F)C(F)(F)C(F)(F)C(F)(F)C(F)(F)C(F)(F)C(F)(F)F [Perfluorooctanesulfonyl fluoride]; settings: in DMSO
Experimental: as §1

[16] = compound: COC(=O)C(F)(F)C(F)(F)OC(F)(C(F)(F)F)C(F)(F)OC(F)=C(F)F [Methyl perfluoro(3-(1-ethenyloxypropan-2-yloxy)propanoate)]; settings: in DMSO
Experimental: as §1

[17] = compound: NC(=O)C(F)(F)C(F)(F)C(F)(F)C(F)F; settings: in DMSO
Experimental: as §1

[18] = compound: FC(F)(F)C(F)(F)CNCC(F)(F)C(F)(F)F [Bis(1H,1H-perfluoropropyl)amine]; settings: in DMSO
Experimental: as §1

[19] = compound: FC(F)(F)C(F)(F)C(F)(F)C(F)(F)C(F)(F)C(F)(F)C(F)(F)I [1-Iodopentadecafluoroheptane]; settings: in DMSO
Experimental: as §1

Test System: CASM3C:Proliferation
- level (log10) ([1]; 1500 nM): 0.017 ± 0.0057
- level (log10) ([1]; 4400 nM): 0.0585 ± 0.061
- level (log10) ([1]; 13000 nM): -0.006 ± 0.059
- level (log10) ([1]; 40000 nM): 0.0275 ± 0.03
- level (log10) ([2]; 6700 nM): -0.0175 ± 0.021
- level (log10) ([2]; 20000 nM): -0.046 ± 0.05
- level (log10) ([2]; 60000 nM): -0.026 ± 0.064
- level (log10) ([3]; 6700 nM): 0.0035 ± 0.019
- level (log10) ([3]; 20000 nM): -0.009 ± 0.0085
- level (log10) ([3]; 60000 nM): 0.009 ± 0.059
- level (log10) ([4]; 6700 nM): -0.008 ± 0.0085
- level (log10) ([4]; 20000 nM): 0.0235 ± 0.018
- level (log10) ([4]; 60000 nM): 0.008 ± 0.024
- level (log10) ([5]; 6700 nM): -0.0495 ± 0.015
- level (log10) ([5]; 20000 nM): 0.0005 ± 0.043
- level (log10) ([6]; 6700 nM): -0.0095 ± 0.029
- level (log10) ([6]; 20000 nM): 0.024 ± 0.033
- level (log10) ([6]; 60000 nM): 0.026 ± 0.018
- level (log10) ([7]; 6700 nM): -0.0395 ± 0.046
- level (log10) ([7]; 20000 nM): -0.042 ± 0.031
- level (log10) ([7]; 60000 nM): 0.0115 ± 0.0092
- level (log10) ([8]; 6700 nM): -0.0005 ± 0.0021
- level (log10) ([8]; 20000 nM): -0.0235 ± 0.0092
- level (log10) ([8]; 60000 nM): 0.007 ± 0.0014
- level (log10) ([9]; 6700 nM): -0.011 ± 0.078
- level (log10) ([9]; 20000 nM): 0.007 ± 0.031
- level (log10) ([9]; 60000 nM): -0.009 ± 0.011
- level (log10) ([10]; 6700 nM): -0.029 ± 0.023
- level (log10) ([10]; 20000 nM): -0.0165 ± 0.05
- level (log10) ([10]; 60000 nM): -0.037 ± 0.051
- level (log10) [11]: -0.289 ± 0.086
- level (log10) ([12]; 6700 nM): 0.0015 ± 0.013
- level (log10) ([12]; 20000 nM): 0.0285 ± 0.03
- level (log10) ([12]; 60000 nM): 0.0255 ± 0.018
- level (log10) ([13]; 6700 nM): 0.001 ± 0.021
- level (log10) ([13]; 20000 nM): -0.0035 ± 0.005
- level (log10) ([13]; 60000 nM): 0.027 ± 0.027
- level (log10) ([14]; 6700 nM): -0.032 ± 0.058
- level (log10) ([14]; 20000 nM): -0.017 ± 0.03
- level (log10) ([14]; 60000 nM): -0.0505 ± 0.035
- level (log10) ([15]; 6700 nM): -0.0125 ± 0.044
- level (log10) ([15]; 20000 nM): -0.0265 ± 0.032
- level (log10) ([15]; 60000 nM): 0.0095 ± 0.0064
- level (log10) ([16]; 6700 nM): -0.012 ± 0.065
- level (log10) ([16]; 20000 nM): 0.036 ± 0.05
- level (log10) ([17]; 6700 nM): 0.002 ± 0.071
- level (log10) ([17]; 20000 nM): -0.0145 ± 0.023
- level (log10) ([17]; 60000 nM): 0.014 ± 0.025
- level (log10) ([18]; 6700 nM): -0.115 ± 0.024
- level (log10) ([18]; 20000 nM): 0.0135 ± 0.037
- level (log10) ([18]; 60000 nM): -0.0005 ± 0.076
- level (log10) ([19]; 6700 nM): -0.003 ± 0.027
- level (log10) ([19]; 20000 nM): -0.045 ± 0.0042

Test System: CASM3C:SRB
- level (log10) ([1]; 1500 nM): -0.0035 ± 0.011
- level (log10) ([1]; 4400 nM): -0.005 ± 0.0085
- level (log10) ([1]; 13000 nM): 0 ± 0.0028
- level (log10) ([1]; 40000 nM): -0.007 ± 0.0085
- level (log10) ([2]; 6700 nM): -0.006 ± 0.014
- level (log10) ([2]; 20000 nM): 0.0055 ± 0.0035
- level (log10) ([2]; 60000 nM): -0.0035 ± 0.005
- level (log10) ([3]; 6700 nM): 0.006 ± 0.0042
- level (log10) ([3]; 20000 nM): -0.011 ± 0.0042
- level (log10) ([3]; 60000 nM): -0.003 ± 0.0028
- level (log10) ([4]; 6700 nM): -0.0085 ± 0.0064
- level (log10) ([4]; 20000 nM): 0.002 ± 0.0042
- level (log10) ([4]; 60000 nM): 0.0055 ± 0.0078
- level (log10) ([5]; 6700 nM): 0.0025 ± 0.0078
- level (log10) ([5]; 20000 nM): 0.008 ± 0.0028
- level (log10) ([6]; 6700 nM): -0.004 ± 0.0028
- level (log10) ([6]; 20000 nM): 0.0025 ± 0.0021
- level (log10) ([6]; 60000 nM): 0.001 ± 0.0085
- level (log10) ([7]; 6700 nM): 0.001 ± 0.0057
- level (log10) ([7]; 20000 nM): -0.0035 ± 0.0021
- level (log10) ([7]; 60000 nM): 0.002 ± 0.0042
- level (log10) ([8]; 6700 nM): -0.0005 ± 0.013
- level (log10) ([8]; 20000 nM): -0.0085 ± 0.00071
- level (log10) ([8]; 60000 nM): -0.0045 ± 0.0078
- level (log10) ([9]; 6700 nM): 0.0075 ± 0.00071
- level (log10) ([9]; 20000 nM): 0.0045 ± 0.0078
- level (log10) ([9]; 60000 nM): 0.014 ± 0.0042
- level (log10) ([10]; 6700 nM): 0.0075 ± 0.013
- level (log10) ([10]; 20000 nM): 0.002 ± 0.013
- level (log10) ([10]; 60000 nM): -0.005 ± 0.0042
- level (log10) [11]: -0.0025 ± 0.0021
- level (log10) ([12]; 6700 nM): 0.004 ± 0.013
- level (log10) ([12]; 20000 nM): 0.006 ± 0.013
- level (log10) ([12]; 60000 nM): -0.0035 ± 0.0078
- level (log10) ([13]; 6700 nM): 0 ± 0.0085
- level (log10) ([13]; 20000 nM): -0.009 ± 0.0014
- level (log10) ([13]; 60000 nM): 0.0025 ± 0.00071
- level (log10) ([14]; 6700 nM): 0.005 ± 0.0057
- level (log10) ([14]; 20000 nM): 0.0025 ± 0.0035
- level (log10) ([14]; 60000 nM): 0.0035 ± 0.0035
- level (log10) ([15]; 6700 nM): 0.002 ± 0.0014
- level (log10) ([15]; 20000 nM): -0.006 ± 0.0071
- level (log10) ([15]; 60000 nM): -0.0015 ± 0.0021
- level (log10) ([16]; 6700 nM): 0.0015 ± 0.0021
- level (log10) ([16]; 20000 nM): 0.006 ± 0.0014
- level (log10) ([17]; 6700 nM): 0.0025 ± 0.00071
- level (log10) ([17]; 20000 nM): -0.0115 ± 0.005
- level (log10) ([17]; 60000 nM): -0.0085 ± 0.016
- level (log10) ([18]; 6700 nM): 0.0065 ± 0.005
- level (log10) ([18]; 20000 nM): -0.001 ± 0.0028
- level (log10) ([18]; 60000 nM): 0.008
- level (log10) ([19]; 6700 nM): -0.0025 ± 0.0092
- level (log10) ([19]; 20000 nM): 0.007

Source: the supplement of paper PMC10331698
